Reference: patent publication US20220135622A1, “ANTIBACTERIAL PEPTIDES AND METHODS OF USE” (priority 2019, published 2022)
Converted amounts (≈) assume the structure as drawn. Like-named read-outs stand apart in the source and are kept apart here. Square brackets hold non-standard residues; d marks the D form. Peptide text beside a SMILES is read from it. Bip = N[C@@H](Cc1ccc(-c2ccccc2)cc1)C(=O)O; hhPhe = N[C@@H](CCCc1ccccc1)C(=O)O; hPhe = N[C@@H](CCc1ccccc1)C(=O)O; Ahp(2) = CCCCC[C@H](N)C(=O)O; Dap = NC[C@H](N)C(=O)O

Experiments:
E. coli BW25113 = assay type: cell-based, Escherichia coli
Experimental: (§1) Bacterial growth conditions. LB or Mueller Hinton II cation-adjusted broth (MHB II, BBL 212322) was prepared according to manufacturer's instructions and supplemented with arabinose at 0.02% for overnight growth or at indicated concentrations in the description of the figures. Bacterial cultures were grown at 37° C. When appropriate, media was supplemented with kanamycin (50 μg/mL), carbenicillin (50 μg/mL), chloramphenicol (12.5 or 25 μg/mL), hygromycin (200 μg/mL), and/or gentamicin (10 μg/mL).
(§2) Peptide sensitivity and MIC assays. Lyophilized peptides (Smartox Biotechnology, CPC Scientific. ABclonal) were solubilized to 10 mM in Tris buffer, pH 8, prior to making a 2-fold dilution series in MHBII cation adjusted broth with highest final assay concentration of 400-800 μM. Bacteria were grown to log phase and added to final OD600˜0.001. The final EDTA concentration was 0.5 mM for E. coli strains and 0.125 mM for USA300. The final volume of 10 μL/well in a 384 well black, clear bottom plate (Corning) was spun <1 min at <250×g and then incubated at 37° C. After 4 h, an equal volume (10 μL) of BacTiter-Glo™ (Promega) was added to each well and luminescence was read after 5 min on an EnVision plate reader (PerkinElmer). To measure the minimal inhibitory concentrations (MICs), bacteria from fresh overnight plates or log phase cultures were diluted with or without EDTA and peptides as described above to final OD600˜0.0002. Plates were incubated at 37° C. for 20 h before measuring OD600 with an EnVision plate reader.

S. aureus USA300 = experiment: MIC assay, S. aureus USA300; assay type: cell-based, Staphylococcus aureus; details: Table 7
Experimental: as §1, §2

E. coli imp4213 = experiment: MIC assay, E. coli imp4213; assay type: cell-based, Escherichia coli; details: Table 7
Experimental: as §1, §2

Compound | MIC E. coli BW25113 (E. coli BW25113; BW25113) [µM] | MIC E. coli BW25113 (E. coli BW25113; Table 8) [µM] | MIC S. aureus USA300 (S. aureus USA300) [µM] | MIC E. coli imp4213 (E. coli imp4213) [µM]
CC(=O)N[C@@H](CCCNC(=N)N)C(=O)N1CCC[C@H]1C(=O)N[C@@H](CCc1ccccc1)C(=O)N[C@H](C(=O)N[C@@H](C)C(=O)N[C@@H](CCCNC(=N)N)C(=O)N[C@@H](CCCNC(=N)N)C(=O)N[C@@H](Cc1c[nH]c2ccccc12)C(=O)N[C@@H](CC(C)C)C(=O)N[C@@H](C)C(=O)N[C@@H](CCCCN)C(=O)N[C@@H](CCCNC(=N)N)C(=O)NCC(=O)N[C@@H](CC(C)C)C(N)=O)[C@@H](C)O [compound 222] (Ac-RP[hPhe]TARRWLAKRGL-NH2) | 12.5 (≈ 22.3 µg/mL) |  |  | 
CCCCC[C@H](NC(=O)[C@H](CCCCN)NC(=O)[C@H](C)NC(=O)[C@H](CC(C)C)NC(=O)[C@H](Cc1c[nH]c2ccccc12)NC(=O)[C@H](CCCNC(=N)N)NC(=O)[C@H](CCCNC(=N)N)NC(=O)[C@H](C)NC(=O)[C@@H](NC(=O)[C@H](CCSC)NC(=O)[C@@H]1CCCN1C(=O)[C@H](CCCNC(=N)N)NC(C)=O)[C@@H](C)O)C(=O)NCC(=O)N[C@@H](CC(C)C)C(N)=O [compound 224] (Ac-RPMTARRWLAK[Ahp(2)]GL-NH2) |  | 100.0 (≈ 172 µg/mL) |  | 
CSCC[C@H](NC(=O)[C@H](CN)NC(=O)[C@H](CCCc1ccccc1)NC(=O)[C@@H]1CCCN1C(=O)[C@H](CCCNC(=N)N)NC(C)=O)C(=O)N[C@@H](CCCNC(=N)N)C(=O)N[C@@H](CCCNC(=N)N)C(=O)N[C@@H](Cc1ccc(-c2ccccc2)cc1)C(=O)N[C@@H](CC(C)C)C(=O)N[C@@H](C)C(=O)N[C@@H](CCCCN)C(=O)N[C@@H](CCCNC(=N)N)C(=O)NCC(=O)N[C@@H](CC(C)C)C(N)=O [compound 226] (Ac-RP[hhPhe][Dap]MRR[Bip]LAKRGL-NH2) | 25.0 (≈ 47 µg/mL) |  |  | 
CSCC[C@H](NC(=O)[C@H](CN)NC(=O)[C@H](CCCc1ccccc1)NC(=O)[C@@H]1CCCN1C(=O)[C@H](CCCNC(=N)N)NC(C)=O)C(=O)N[C@@H](CCCNC(=N)N)C(=O)N[C@@H](CCCNC(=N)N)C(=O)N[C@@H](Cc1c[nH]c2ccccc12)C(=O)N[C@@H](CC(C)C)C(=O)N[C@@H](C)C(=O)N[C@@H](CCCCN)C(=O)N[C@@H](CCCNC(=N)N)C(=O)NCC(=O)N[C@@H](CC(C)C)C(N)=O [compound 227] (Ac-RP[hhPhe][Dap]MRRWLAKRGL-NH2) | 50.0 (≈ 92.1 µg/mL) |  |  | 
Ac-APMTARRFLEKHGL-NH2 [compound 16] |  |  | >800 | 100
Ac-FPMTARRFLEKHGL-NH2 [compound 17] |  |  | >800 | 200
Ac-RPMTARRFLEKHGL-NH2 [compound 19] |  |  | >800 | 25
Ac-RPMTWRRWLEKHGL-NH2 [compound 204] |  | 200.0 |  | 
Ac-RPMTWRRWLEKYGL-NH2 [compound 205] | 200.0 |  |  | 
Ac-WPMTARRFLEKHGL-NH2 [compound 18] |  |  | >800 | 200
Ac-YAMTARRFLEKHGL-NH2 [compound 20] |  |  | >800 | 400
Ac-YPATARRFLEKHGL-NH2 [compound 21] |  |  | >800 | 800
Ac-YPFTARRFLEKHGL-NH2 [compound 23] |  |  | >800 | 400
Ac-YPFTFRRFLEKWGLLR-NH2 [compound 79] |  | 200.0 |  | 
Ac-YPLTARRFLEKHGL-NH2 [compound 22] |  |  | >800 | 400
Ac-YPMKFRRFLEKWGLLR-NH2 [compound 107] |  | 12.5 |  | 
Ac-YPMRFRRFLEKWGLLR-NH2 [compound 108] |  | <12.5 |  | 
Ac-YPMTARRFLEKHGGL-NH2 [compound 101] |  | 50.0 |  | 
